# Assay results reported in US8133888B2, “Hydrazide containing taxane conjugates” (Sun Pharma Advanced Research Company Ltd., priority 2008, dated 2012).
# Experiments:
# [1] = Solubility of the taxane conjugates in water with added acid (visual clarity); format: physicochemical; conditions: 2 mg dispersed in 0.5 ml water, sonicated, 20 μl of 2.5M HCl added, sonicated about 2 min
# Method: About 2 mg of the taxane conjugate of formula I was dispersed in 0.5 ml water (sterile) and sonicated for about 2 min. Small aliquots of a pharmaceutically accepted acid was added, sonicated for 2-3 min after each addition and observed for visual clarity.
# For example, 2 mg of compound I.03 was dispersed in 0.5 ml water and sonicated for about 2 min.
# [2] = cited from earlier work
# [3] = Conversion of compound of formula I to the active taxane compound in human plasma (LC-MS/MS); format: in vitro ADME; conditions: 37° C.; for Peak Area of docetaxel formed: docetaxel released from compound I.04 in human plasma; for Peak Area of test compound / % Unconverted Compound I.04: human plasma
# Method: The conversion of the test compound I.04 of the present invention to the active/parent taxane compound was determined in the human plasma sample. The test compound of 2000 ng per nil concentration was added to human plasma at ambient temperature and was kept in an incubator maintained at 37° C. Aliquots of this plasma sample were taken at definite time intervals and subjected to LC-MS/MS analysis. The samples were analyzed for amount of unconverted test compound and the amount of docetaxel formed in the test solution using LC-MS/MS operating in selected reaction monitoring (SRM) mode, as per follows: • Column: Hypurity Aquastar C-18, 50×2.1 mm, 3 micron • Mobile Phase: 10 mmol ammonium acetate-acetonitrile, 40:60 • Flow Rate: 250 μl/min • Oven Temperature: 45° C. • Retention time of compound I.04: 13.9 min • Retention time of docetaxel: 0.79 min
# The parent ions>product ions monitored were the following: […]
compound,measurement,setting,value
CC(=O)O[C@H]1C(=O)[C@@]2(C)[C@H]([C@H](OC(=O)c3ccccc3)[C@]3(O)C[C@H](OC(=O)[C@H](O)[C@@H](NC(=O)c4ccccc4)c4ccccc4)C(C)=C1C3(C)C)[C@]1(OC(C)=O)CO[C@@H]1C[C@@H]2O [paclitaxel],"Solubility, visual clarity",[1],completely insoluble
same,Solubility in water (in words),[2],poorly soluble in water
"CC(=O)O[C@@]12CO[C@@H]1C[C@H](O)[C@@]1(C)C(=O)[C@H](O)C3=C(C)[C@@H](OC(=O)[C@H](O)[C@@H](NC(=O)OC(C)(C)C)c4ccccc4)C[C@@](O)([C@@H](OC(=O)c4ccccc4)[C@H]21)C3(C)C [Docetaxel, docetaxel, reference compound]","Solubility, visual clarity",[1],completely insoluble
same,Peak Area of docetaxel formed,[3]; time 0 hrs,10447.0 counts
same,Peak Area of docetaxel formed,[3]; time 0.5 hrs,70713.8 counts
same,Peak Area of docetaxel formed,[3]; time 1 hrs,125083.0 counts
same,Peak Area of docetaxel formed,[3]; time 2 hrs,243846.6 counts
same,Peak Area of docetaxel formed,[3]; time 3 hrs,331134.0 counts
same,Peak Area of docetaxel formed,[3]; time 4 hrs,464924.3 counts
same,Peak Area of docetaxel formed,[3]; time 6 hrs,546298.2 counts
same,Solubility in water,[2],< 50 µg/mL
"CC(=O)O[C@@]12CO[C@@H]1C[C@H](O)[C@@]1(C)C(=O)[C@H](O)C3=C(C)[C@@H](OC(=O)[C@H](OC(=O)CCC(=O)NN4CCCCC4)[C@@H](NC(=O)OC(C)(C)C)c4ccccc4)C[C@@](O)([C@@H](OC(=O)c4ccccc4)[C@H]21)C3(C)C [Compound I.04, 10-Deacetyl-N-debenzoyl-N-(tert-butyloxycarbonyl)-2′-[(N-piperidin-1-yl)-succinamidoyl]taxol]",Peak Area of test compound,[3]; time 0 hrs,24696932.5 counts
same,% Unconverted Compound I.04,[3]; time 0.0 hrs,100%
same,% Unconverted Compound I.04,[3]; time 0.5 hrs,59.1%
same,Peak Area of test compound,[3]; time 0.5 hrs,19303514.4 counts
same,Peak Area of test compound,[3]; time 1 hrs,16791382.3 counts
same,% Unconverted Compound I.04,[3]; time 1.0 hrs,40.3%
same,Peak Area of test compound,[3]; time 2 hrs,11789443.5 counts
same,% Unconverted Compound I.04,[3]; time 2.0 hrs,4.7%
same,Peak Area of test compound,[3]; time 3 hrs,6259891.0 counts
same,Peak Area of test compound,[3]; time 4 hrs,3007853.1 counts
same,% Unconverted Compound I.04,[3]; time 4.0 hrs,0.1%
same,Peak Area of test compound,[3]; time 6 hrs,904115.8 counts
"CC(=O)O[C@@]12CO[C@@H]1C[C@H](OC(=O)CCC(=O)NN1CCCCC1)[C@@]1(C)C(=O)[C@H](O)C3=C(C)[C@@H](OC(=O)[C@H](OC(=O)CCC(=O)NN4CCCCC4)[C@@H](NC(=O)OC(C)(C)C)c4ccccc4)C[C@@](O)([C@@H](OC(=O)c4ccccc4)[C@H]21)C3(C)C [Compound I.03, 10-Deacetyl-N-debenzoyl-N-(tert-butyloxycarbonyl)-2′,7-bis[(N-piperidin-1-yl)succinamidoyl]taxol]","Solubility, visual clarity",[1],clear solution
